In US10947252B2, “Inhibitors of KEAP1-Nrf2 protein-protein interaction” (Janssen Pharmaceutica NV, priority 2018, dated 2021) one finds EC50 and Kd data, which are given here for 17 compounds.

Assay [1] deals with Glo-Response ARE-luc2P HEK293 cell line. The experiment in a line: ARE luciferase reporter cell-based assay.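 Also: luciferase signal tracks Nrf2 activation of the ARE once compounds disrupt KEAP1-Nrf2 binding, read with One-Glo reagent, DMSO serving as low control.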 The conditions noted are these: Homo sapiens, HEK293, 24 h, average of results obtained.
Assay [2] has as its target Kelch domain of human KEAP1 (321-624 aa) (Homo sapiens (Human), UniProt Q14145). Description: KEAP1 KELCH ThermoFluor binding assay.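 Also: Ligand-induced melting temperature shift of E. coli-expressed KEAP1 Kelch protein, Kd estimated from concentration-response curves of ΔTm.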 To be noted: KEAP Kelch […], 1,8-ANS, pH 7.0, average of results obtained, read-out: Tf Kd. A general note: In DSF a fluorescence change marks the thermal transition of the protein.

For orientation: EC50 means the concentration at which the effect is half-maximal. The low end stands for an effect from little substance, the high end for a need for much substance. What is called Kd is a measure of binding affinity in units of concentration.

Chain of Kelch domain of human KEAP1 (321-624 aa) (Q14145 321-624): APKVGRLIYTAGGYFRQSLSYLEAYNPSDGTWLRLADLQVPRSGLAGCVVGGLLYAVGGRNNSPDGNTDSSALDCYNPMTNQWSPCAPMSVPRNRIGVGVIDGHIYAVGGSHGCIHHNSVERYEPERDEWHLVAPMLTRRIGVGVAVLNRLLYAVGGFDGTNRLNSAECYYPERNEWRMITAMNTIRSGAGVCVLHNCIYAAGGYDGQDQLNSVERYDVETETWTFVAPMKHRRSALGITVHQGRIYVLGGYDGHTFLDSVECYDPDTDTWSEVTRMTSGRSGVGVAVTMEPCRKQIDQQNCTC

In assay [1], `Cc1ccc([C@@H](CC(=O)O)c2ccc3c(nnn3CC3CC3)c2C)cc1CN1C[C@@H]2CCCCN2c2ncccc2S1(=O)=O` (single isomer, unassigned) [Example 233, (*R)-3-(1-(Cyclopropylmethyl)-4-methyl-1H-benzo[d][1,2,3]triazol-5-yl)-3-(3-(((*S)-5,5-dioxido-7,7a,8,9,10,11-hexahydro-6H-dipyrido[2,1-d:2′,3′-f][1,2,5]thiadiazepin-6-yl)methyl)-4-methylphenyl)propanoic Acid] yielded an EC50 of 80 nM. For the same compound, the Kd in assay [2] is under 1 nM.

Turning to `Cc1ccc([C@H](CC(=O)O)c2ccn3c(C(F)(F)F)nnc3c2C)cc1CN1C[C@H]2COCCN2c2ncc(C#N)cc2S1(=O)=O` (single isomer, unassigned) [Example 196, (*S)-3-(3-(((*S)-3-Cyano-5,5-dioxido-7a,8,10,11-tetrahydro-[1,4]oxazino[3,4-d]pyrido[2,3-f][1,2,5]thiadiazepin-6(7H)-yl)methyl)-4-methylphenyl)-3-(8-methyl-3-(trifluoromethyl)-[1,2,4]triazolo[4,3-a]pyridin-7-yl)propanoic Acid], the midpoint of the response in assay [1], the EC50, lay at 15 nM. The Kd in assay [2] was under 1 nM.

In assay [1], `Cc1ccc([C@H](c2ccn3c(C4CC4)nnc3c2C)C(C)(C)C(=O)O)cc1CN1CC2(COC2)Oc2ncccc2S1(=O)=O` (single isomer, unassigned) [Example 620, (*R)-3-(3-Cyclopropyl-8-methyl-[1,2,4]triazolo[4,3-a]pyridin-7-yl)-3-(3-((1′,1′-dioxidospiro[oxetane-3,4′-pyrido[2,3-b][1,4,5]oxathiazepin]-2′(3′H)-yl)methyl)-4-methylphenyl)-2,2-dimethylpropanoic Acid] displayed a concentration giving a half-maximal response (EC50) of 7.87 nM. For the same compound, the Kd in assay [2] is under 1 nM.

In assay [1], `Cc1ccc([C@H](c2ccn3c(C(F)(F)F)nnc3c2C)C(C)(C)C(=O)O)cc1CN1CC2(CCOCC2)Oc2nc(N[C@@H](C)CCO)ccc2S1(=O)=O` (single isomer, unassigned) [Example 122, (*R)-3-(3-((7′-(((S)-4-Hydroxybutan-2-yl)amino)-1′,1′-dioxido-2,3,5,6-tetrahydrospiro[pyran-4,4′-pyrido[2,3-b][1,4,5]oxathiazepin]-2′(3′H)-yl)methyl)-4-methylphenyl)-2,2-dimethyl-3-(8-methyl-3-(trifluoromethyl)-[1,2,4[triazolo[4,3-a]pyridine-7-yl)propanoic Acid] gave a half-maximal effective concentration (EC50) of 13000 nM. In addition, the Kd in assay [2] worked out at 8930 nM.

In assay [1], `Cc1cnc([C@@H](c2ccn3c(C(F)F)nnc3c2C)C(C)(C)C(=O)O)cc1CN1CC2(CC2)Oc2nc(OCCN3CCCCC3)c(C)cc2S1(=O)=O` (single isomer, unassigned) [Example 638, (*S)-3-(3-(Difluoromethyl)-8-methyl-[1,2,4]triazolo[4,3-a]pyridin-7-yl)-2,2-dimethyl-3-(5-methyl-4-((8′-methyl-1′,1′-dioxido-7′-(2-(piperidin-1-yl)ethoxy)spiro[cyclopropane-1,4′-pyrido[2,3-b][1,4,5]oxathiazepin]-2′(3′H)-yl)methyl)pyridin-2-yl)propanoic Acid] gave an EC50 of 20.1 nM. Moreover, in assay [2], the Kd was under 1 nM.

Turning to `Cc1cnc2c(c1)S(=O)(=O)N(Cc1cc([C@@H](c3ccc4c(nnn4C4CC4)c3C)C(C)(C)C(=O)O)cnc1C)CC1(COC1)O2` (single isomer, unassigned) [Example 623, (*R)-3-(1-Cyclopropyl-4-methyl-1H-benzo[d][1,2,3]triazol-5-yl)-2,2-dimethyl-3-(6-methyl-5-((8′-methyl-1′,1′-dioxidospiro[oxetane-3,4′-pyrido[2,3-b][1,4,5]]oxathiazepin]-2′(3′H)-yl)methyl)pyridine-3-yl)propanoic Acid], the EC50 in assay [1] was determined as 7.5 nM. In assay [2], the Kd was under 1 nM.

Take `Cc1ccc([C@H](CC(=O)O)c2ccn3c(C(F)F)nnc3c2C)cc1CN1CC2(COC2)Oc2ncccc2S1(=O)=O` (single isomer, unassigned) [Example 470, (*S)-3-(3-(Difluoromethyl)-8-methyl-[1,2,4]triazolo[4,3-a]pyridin-7-yl)-3-(3-((1′,1′-dioxidospiro[oxetane-3,4′-pyrido[2,3-b][1,4,5]oxathiazepin]-2′(3′H)-yl)methyl)-4-methylphenyl)propanoic Acid]: the EC50 in assay [1] worked out at 472 nM. In addition, in assay [2], the Kd is under 1 nM.

`Cc1ccc([C@H](CC(=O)O)c2ccn3c(C(F)F)nnc3c2C)cc1CN1CC2(COC2)Oc2ccccc2S1(=O)=O` (single isomer, unassigned) [Example 467, (*S)-3-(3-(Difluoromethyl)-8-methyl-[1,2,4]triazolo[4,3-a]pyridin-7-yl)-3-(3-((1,1-dioxidospiro[benzo[b][1,4,5]oxathiazepine-4,3′-oxetan]-2(3H)-yl)methyl)-4-methylphenyl)propanoic Acid] showed an EC50 in assay [1] of 79.3 nM. Moreover, the Kd in assay [2] is under 1 nM.

`Cc1ccc([C@@H](c2ccn3c(C4CC4)nnc3c2C)C(C)(C)C(=O)O)cc1CN1CC2(CC2)Oc2nc(OCCN3CCCC3)c(C)cc2S1(=O)=O` (single isomer, unassigned) [Example 663, (*S)-3-(3-Cyclopropyl-8-methyl-[1,2,4]triazolo[4,3-a]pyridin-7-yl)-2,2-dimethyl-3-(4-methyl-3-((8′-methyl-1′,1′-dioxido-7′-(2-(pyrrolidin-1-yl)ethoxy)spiro[cyclopropane-1,4′-pyrido[2,3-b][1,4,5]oxathiazepin]-2′(3′H)-yl)methyl)phenyl)propanoic Acid] registered a half-maximal effective concentration (EC50) in assay [1] of 57.5 nM. Further, the Kd in assay [2] was under 1 nM.

In assay [1], `Cc1ccc([C@H](c2ccn3c(C(F)F)nnc3c2C)C(C)(C)C(=O)O)nc1CN1CC2(CC2)Oc2nc(OCCN3CCCCC3)c(C)cc2S1(=O)=O` (single isomer, unassigned) [Example 357, (*R)-3-(3-(difluoromethyl)-8-methyl-[1,2,4]triazolo[4,3-a]pyridin-7-yl)-2,2-dimethyl-3-(5-methyl-6-((8′-methyl-1′,1′-dioxido-7′-(2-(piperidin-1-yl)ethoxy)spiro[cyclopropane-1,4′-pyrido[2,3-b][1,4,5]oxathiazepin]-2′(3′H)-yl)methyl)pyridin-2-yl)propanoic Acid] showed an EC50 of 452 nM. In assay [2], the Kd is under 1 nM.

Take `Cc1ccc([C@H](CC(=O)O)c2ccn3c(C(F)(F)F)nnc3c2C)nc1CN1CC2(CC2)Oc2ncccc2S1(=O)=O` (single isomer, unassigned) [Example 483, (*R)-3-(6-((1′,1′-Dioxidospiro[cyclopropane-1,4′-pyrido[2,3-b][1,4,5]oxathiazepin]-2′(3′H)-yl)methyl)-5-methylpyridin-2-yl)-3-(8-methyl-3-(trifluoromethyl)-[1,2,4]triazolo[4,3-a]pyridin-7-yl)propanoic Acid]: in assay [1], the EC50 worked out at 3450 nM. Moreover, in assay [2], the Kd was under 1 nM.

For the compound `Cc1ccc([C@@H](CC(=O)O)c2ccn3c(C4CC4)nnc3c2C)cc1CN1C[C@H]2CCCN2c2ncccc2S1(=O)=O` (single isomer, unassigned) [Example 169, (*R)-3-(3-Cyclopropyl-8-methyl-[1,2,4]triazolo[4,3-a]pyridin-7-yl)-3-(3-(((R)-5,5-dioxido-7a,8,9,10-tetrahydropyrido[2,3-f]pyrrolo[2,1-d][1,2,5]thiadiazepin-6(7H)-yl)methyl)-4-methylphenyl)propanoic Acid], the EC50 in assay [1] was 5910 nM. The Kd in assay [2] is 1.2 nM.

As for `Cc1ccc([C@H](c2ccn3c(C(F)(F)F)nnc3c2C)C(C)(C)C(=O)O)cc1CN1CC2(CCOCC2)Oc2nc(NC3CC(O)C3)c(C)cc2S1(=O)=O` (stereo in doubt) [Example 125, (*R)-3-(3-((7′-(((1s,3S)-3-Hydroxycyclobutyl)amino)-8′-methyl-1′,1′-dioxido-2,3,5,6-tetrahydrospiro[pyran-4,4′-pyrido[2,3-b][1,4,5]oxathiazepin]-2′(3′H)-yl)methyl)-4-methylphenyl)-2,2-dimethyl-3-(8-methyl-3-(trifluoromethyl)-[1,2,4]triazolo[4,3-a]pyridine-7-yl)propanoic Acid], the response in assay [1] was half-maximal at 140 nM (EC50). Besides, the Kd in assay [2] was under 1 nM.

`Cc1ccc([C@H](CC(=O)O)c2ccn3c(C(F)(F)F)nnc3c2C)cc1CN1C[C@H]2CCN2c2ncccc2S1(=O)=O` (single isomer, unassigned) [Example 294, (*S)-3-(3-(((*R)-5,5-Dioxido-7,7a, 8,9-tetrahydro-6H-azeto[2,1-d]pyrido[2,3-f][1,2,5]thiadiazepin-6-yl)methyl)-4-methylphenyl)-3-(8-methyl-3-(trifluoromethyl)-[1,2,4]triazolo[4,3-a]pyridin-7-yl)propanoic Acid] had an EC50 in assay [1] of 270 nM. In assay [2], the equilibrium dissociation constant (Kd) came to 1.61 nM.

For the compound `Cc1ccc([C@H](CC(=O)O)c2ccn3c(C(F)(F)F)nnc3c2C)nc1CN1CC2(CC2)Oc2ncc(F)cc2S1(=O)=O` (single isomer, unassigned) [Example 510, (*R)-3-(6-((8′-Fluoro-1′,1′-dioxidospiro[cyclopropane-1,4′-pyrido[2,3-b][1,4,5]oxathiazepin]-2′(3′H)-yl)methyl)-5-methylpyridin-2-yl)-3-(8-methyl-3-(trifluoromethyl)-[1,2,4]triazolo[4,3-a]pyridin-7-yl)propanoic Acid], the concentration for a half-maximal effect (EC50) in assay [1] worked out at 314 nM. The Kd in assay [2] was under 1 nM.

For the compound `Cc1ccc([C@H](CC(=O)O)c2ccn3c(C(F)(F)F)nnc3c2C)cc1CN1CC2(CC2)Oc2nc(NCCCO)ccc2S1(=O)=O` (single isomer, unassigned) [Example 102], the response in assay [1] was half-maximal at 696 nM (EC50). Further, the Kd in assay [2] was under 1 nM.

In assay [1], `Cc1ccc([C@H](c2ccn3c(C(F)(F)F)nnc3c2C)C(C)(C)C(=O)O)cc1CN1C[C@@]2(CCOC2)Oc2ncccc2S1(=O)=O` (single isomer, unassigned) [Example 386, (*R)-3-(3-(((*R)-1′,1′-Dioxido-4,5-dihydro-2H-spiro[furan-3,4′-pyrido[2,3-b][1,4,5]oxathiazepin]-2′(3′H)-yl)methyl)-4-methylphenyl)-2,2-dimethyl-3-(8-methyl-3-(trifluoromethyl)-[1,2,4]triazolo[4,3-a]pyridin-7-yl)propanoic Acid] registered an EC50 of 343 nM. In assay [2], the Kd amounted to 1060 nM.
